US20230312601A1, “THIAZOLO[5,4-B]PYRIDINE MALT-1 INHIBITORS” (AbbVie Inc., priority 2022, published 2023)
pEC50: −log10 of the molar value.

Assays:
human MALT-1 protein = human MALT-1 protein (Homo sapiens (Human), UniProt Q9UDY8); test: MALT-1 Biochemical Assay (Quench-FRET enzyme assay); conditions: human MALT-1 6 nM, substrate 2 μM, 40 min preincubation
Excerpt: A Quenched Fluorescence Resonance Energy Transfer (Quench-FRET) enzyme assay was used to test the ability of exemplary MALT-1 inhibitors Example 1 to Example 39 to inhibit the cleavage of a MALT1 specific quenched fluorescent substrate of sequence [TAMRA-PEG2-Leu-Val-Ser-Arg-Gly-Ala-Ala-Ser-PEG2-K(QSY7) by human MALT-1 protein; where TAMRA is 6-carboxytetramethylrhodamine, PEG2 is 2-(2-(2-aminoethoxy)ethoxyamide linker, QSY7 is a non-fluorescent quenching dye (Thermo-Fisher catalog #Q10193). The assay was performed by pre-dispensing compounds into 384 well Proxiplates™ (PE 6008289). Human MALT-1 (6 nM) was prepared using the assay buffer (25 mM HEPES pH 7.5, 1 mM ethylenediaminetetraacetic acid, 0.8 M sodium citrate, 0.005% Bovine serum albumin (BSA), 2 mM dithiothreitol (DTT)) and added to the compound plates. The plates were incubated 40 minutes at room temperature. The reaction was carried out by adding the substrate (2 μM) to the plates and incubating for 60 minutes at room temperature. A fluorescence readout was then measured using a PE EnVision® reader (Ex.535/Em.590). […] EC50 is defined as the half maximal effective concentration of compound to inhibit MALT-1 protease activity.

OCI-LY3 IL6 = test: MALT-1 Cell IL-6 AlphaLISA Assay; format: cell-based; conditions: Homo sapiens; OCI-LY3 cells, 48 hours incubation; read-out: OCI-LY3 IL6 48 hour Inhibition EC50
Procedure: The following MALT-1 Cell Interleukin-6 (IL-6) AlphaLISA assay was conducted using a Perkin Elmer® IL-6 AlphaLISA® detection kit (PE AL223). The IL-6 detection assay is a homogeneous immunoassay that detects human IL-6 present in the cell culture medium in the MALT-1 dependent human ABC-DLBCL cell line, OCI-LY3. Compounds were pre-dispensed into Black 384w microtiter plates (Greiner, 781090) from 30 μM to 1.5 nM. Viable OCI-LY3 cells were then seeded on top of compounds at a seeding density of 50,000 cells/mL. Plates were then placed into 37° C. incubators for 48 hours. After 48 hours incubation, 2 μL of cell medium from each well was transferred into white ProxiPlates™ (PE 6008289). A fresh mix of AlphaLISA Acceptor beads (10 μg/mL) and Biotinylated IL-6 Antibody (1 nM) was made in AlphaLISA Immunoassay buffer and added to all wells (4 μL). The plates were incubated for 60 minutes at room temperature. Streptavidin donor beads (40 μg/mL) were prepared using the assay buffer and added to all wells (5 The plates were incubated for 30 minutes at room temperature and read using PE EnVision® reader. Results are shown in Table 3.

CYP 3A4 mRNA = test: CYP3A4 Induction Assay (qPCR, human hepatocytes); format: in vitro ADME; conditions: 10 μM compound; for CYP3A4 % of positive control (%): relative to rifampicin 10 μM
Procedure: (§1) CYP induction by compounds of the Examples was evaluated in vitro by determining the expression levels of CYP 3A4 mRNA using the qPCR (quantitative polymerase chain reaction) assay. On day one, cryopreserved human hepatocytes were thawed in prewarmed (37° C.) thawing medium (cryopreserved hepatocyte recovery medium, Gibco™ CM 7000; Thermo Fisher Scientific), centrifuged (1000 g for 10 minutes) and resuspended in plating medium (Gibco™ CM3000—Williams Medium E supplemented with hepatocytes plating supplement pak-serum containing; Thermo Fisher Scientific). Cells were counted by trypan blue exclusion using a hemocytometer and adjusted to a cell density of […]. Thereafter, […] of cell suspension was aliquoted per well in a 96-well plate, resulting in 60,000 cells/well. Plates were shaken in the north-south and east-west direction during plating. Plated cells were incubated at 37° C/5% CO2 in a humidified cell culture incubator for 4-6 hours. During this time, incubation medium (Gibco™ CM4000, cell maintenance supplement pack; Thermo Fisher Scientific) was mixed with Gibco™ Geltrex™ (Thermo Fischer Scientific) at the appropriate GeltrexTM protein concentration. Following recovery, medium was removed from cells and replaced with freshly prepared incubation medium. Cells were incubated overnight in a cell culture incubator (37° C./5% CO2).
(§2) The next day the incubation medium was prepared by combining the hepatocyte maintenance supplement pack with Williams Medium E. The medium was warmed to 37° C. 1000× dimethyl sulfoxide compound stocks of the compounds of the Examples were prepared to the desired concentrations. 10 mM compound stocks in dimethyl sulfoxide were diluted (1 μL to 1 mL CM4000; final concentration=10 μM). Overlay medium was aspirated and […] dose solution added to the desired labeled 96 well plate. Cells were then dosed with compound (10 μM) and prototypical induces at the targeted concentrations either 50 i.tM for omeprazole (Sigma 0104/lotBCBF-2161V) or 10 i.tM for rifampicin (Sigma R3501/lot 011M1159V). A negative control, probenecid, was dosed at 10 i.tM (Sigma P8761/lot 013K0148).
(§3) On day 3, RNA isolation was performed. All surfaces were cleaned using RNase RNAy. Total RNA was isolated using MagMAX Express 96 RNA Isolation System (Life Technologies, AM1830). Briefly, hepatocytes were washed once with 1X PBS (phosphate buffered saline). 145 μL of RNA Lysis Buffer was added to each well and each well was mixed by pipetting several times. Lysate was then transferred to a well of a 96 well Binding Plate. Samples were then mixed with 20 μL magnetic beads coming from the kit. RNA bound to beads was then captured by the magnetic tip manifold and beads were washed with the wash solution. Samples were treated with TURBOTmDNase. After TURBOTmDNase treatment, RNA was rebound to beads and washed with the provided wash buffer an additional two times. Beads are then dried, and RNA was eluted with 50 μL elution buffer. The eluted mRNA was transferred from the wells to RNase-free sealable microtiter plates and stored at -80° C. until use.
(§4) Following mRNA isolation, reverse transcription (RT) reactions were performed using TaqmanTm Reverse Transcription Reagents (ThermoFisher Scientific). RT master mix was prepared by mixing 2.5 μL 10× RT buffer, 5.5 μL 25 mM MgCl2, 5μL deoxyNTP mixture, 1.25 50 mM random hexamers, 0.5 μL 2× RNAse inhibitor, 0.625 μL multiscript RTase (50U/μL) and 0.625 μL water. An aliquot of RT mix (16 μL) and an aliquot of mRNA sample (9 μL) was added to each well of a 96-well plate. The SimpliAmpTM Thermal cycler PCR System VIIA7 from Applied Biosystems was used for reverse transcription under the following conditions: segment 1: 25° C. for 10 minutes; segment 2: 45° C. for 45 minutes; segment 3: 95° C. for 5 minutes; and segment 4: 4° C. hold; with 1 cycle for each segment. […]

CYP3A4 mRNA = test: CYP3A4 Induction Assay (qPCR, human hepatocytes); format: in vitro ADME; conditions: cryopreserved human hepatocytes (plated), 10 μM compound, mRNA fold over vehicle (0.1% DMSO)
Procedure: as §1, §2, §3, §4

male Sprague-Dawley rats = test: Cardiovascular Assay in anesthetized rats; format: in vivo; conditions: rat; for HR (%) / MAP (%) / dP/dt@50 (%): change from vehicle; for Drug (μg/mL SEM): plasma at end of infusion
Procedure: The following cardiovascular assay was conducted using male Sprague-Dawley rats that were anesthetized with Inactin (thiobutabarbital), instrumented (catheterized both femoral artery and vein; catheterize left ventricular) and allowed to stabilize. Following a 30-minute baseline period, each compound was infused at low, medium, and high doses/30 minutes. Plasma samples were taken at the end of each dose infusion. If, at any point, the mean arterial pressure (MAP) of an animal decreased below 70 mmHg, the infusion was immediately stopped, a final blood sample was taken, and hemodynamic data for that animal was removed from the group average for all subsequent time points. A 15% change from vehicle for MAP or heart rate (HR), respectively, is considered biologically relevant. A 20% change from vehicle for dP/dt@50 is considered biologically relevant.

Sequence of human MALT-1 protein (Q9UDY8 whole entry): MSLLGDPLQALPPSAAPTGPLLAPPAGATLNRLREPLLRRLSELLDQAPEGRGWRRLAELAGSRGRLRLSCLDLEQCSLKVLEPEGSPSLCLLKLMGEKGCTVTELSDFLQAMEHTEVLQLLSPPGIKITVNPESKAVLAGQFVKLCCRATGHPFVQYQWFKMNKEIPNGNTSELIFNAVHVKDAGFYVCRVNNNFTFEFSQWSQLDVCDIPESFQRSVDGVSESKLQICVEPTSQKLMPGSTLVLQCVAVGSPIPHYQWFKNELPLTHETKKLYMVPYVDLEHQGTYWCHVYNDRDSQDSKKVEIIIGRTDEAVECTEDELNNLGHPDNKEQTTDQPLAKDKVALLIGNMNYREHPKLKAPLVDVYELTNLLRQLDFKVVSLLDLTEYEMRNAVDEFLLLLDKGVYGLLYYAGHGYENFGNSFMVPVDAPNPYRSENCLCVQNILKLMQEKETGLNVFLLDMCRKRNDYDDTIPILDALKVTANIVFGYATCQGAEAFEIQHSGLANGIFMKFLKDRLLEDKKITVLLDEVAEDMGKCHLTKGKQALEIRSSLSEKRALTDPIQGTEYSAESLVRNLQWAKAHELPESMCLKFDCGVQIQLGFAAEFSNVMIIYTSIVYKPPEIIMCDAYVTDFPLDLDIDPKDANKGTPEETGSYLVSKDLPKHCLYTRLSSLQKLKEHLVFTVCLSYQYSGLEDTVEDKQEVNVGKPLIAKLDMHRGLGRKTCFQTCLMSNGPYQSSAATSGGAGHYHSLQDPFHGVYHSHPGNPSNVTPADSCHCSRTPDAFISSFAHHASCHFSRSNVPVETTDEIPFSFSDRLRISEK

In the case of `CO[C@@H](C)c1c(Nc2ccc([C@H](N(C)C(=O)C3CCS(=O)(=O)CC3)C(F)(F)F)cc2F)cnc2sc(C)nc12` (single isomer, unassigned) [Example 10], the pEC50 (human MALT-1 protein) was 6.70, the pEC50 (OCI-LY3 IL6) was 6.64 and the “CYP3A4 % of positive control (%)” value (CYP 3A4 mRNA) was “(84.8) %”. The fold induction at 1 day, 10 µM (CYP3A4 mRNA) was 8.24.

With `CO[C@H](c1c(Nc2ccc([C@H](N(C)C(=O)C3CCS(=O)(=O)CC3)C(F)(F)F)cc2F)cnc2sc(C)nc12)C(F)F` (single isomer, unassigned) [Example 17] the pEC50 (human MALT-1 protein) was 7.04 and the pEC50 (OCI-LY3 IL6) was 6.24.

With `Cc1nc2c([C@@H](C)C(F)(F)F)c(Nc3ccc([C@H](N(C)C(=O)C4CCS(=O)(=O)CC4)C(F)(F)F)cc3)cnc2s1` (single isomer, unassigned) [Example 38] the pEC50 (human MALT-1 protein) was 6.81, the pEC50 (OCI-LY3 IL6) was 6.72 and the “CYP3A4 % of positive control (%)” value (CYP 3A4 mRNA) was “(19.9) %”. For the same molecule, the fold induction at 1 day, 10 µM (CYP3A4 mRNA) was 2.72.

For `Cc1nc2c([C@H](C)C(F)(F)F)c(Nc3ccc([C@H](N(C)C(=O)C4CCS(=O)(=O)CC4)C(F)(F)F)cc3)cnc2s1` (single isomer, unassigned) [Example 39], the pEC50 (human MALT-1 protein) was 7.08, the pEC50 (OCI-LY3 IL6) was 7.40 and the “CYP3A4 % of positive control (%)” value (CYP 3A4 mRNA) was “(14.9) %”. For the same molecule, the fold induction at 1 day, 10 µM (CYP3A4 mRNA) was 2.29.

For `CO[C@@H](C)c1c(Nc2ccc([C@H](N(C)C(=O)C3CCS(=O)(=O)CC3)C(F)(F)F)cc2)cnc2cc(Cl)nn12` [Comparative Example A, N-{(1S)-1-[4-({2-chloro-7-[(1 S)-1-methoxyethyl]pyrazolo [1,5-a]pyrimidin-6-yl}amino)phenyl]-2,2,2-trifluoroethyl}-N-methyl-1,1-dioxo-1λ^6-thiane-4-carboxamide, reference compound], the “HR (%)” value (male Sprague-Dawley rats; dose 3 mg/kg) was −7%, the “MAP (%)” value (male Sprague-Dawley rats; dose 3 mg/kg) was −10% and the “dP/dt@50 (%)” value (male Sprague-Dawley rats; dose 3 mg/kg) was −4%. For the same molecule, the “HR (%)” value (male Sprague-Dawley rats; dose 10 mg/kg) was −11%, the “MAP (%)” value (male Sprague-Dawley rats; dose 10 mg/kg) was −14% and the “dP/dt@50 (%)” value (male Sprague-Dawley rats; dose 10 mg/kg) was −7%. For the same molecule, the “HR (%)” value (male Sprague-Dawley rats; dose 30 mg/kg) was −18%, the “MAP (%)” value (male Sprague-Dawley rats; dose 30 mg/kg) was −22% and the “dP/dt@50 (%)” value (male Sprague-Dawley rats; dose 30 mg/kg) was −6%. The “Drug (μg/mL SEM)” value (male Sprague-Dawley rats; dose 3 mg/kg) was 1.45 ± 0.06 µg/mL, the “Drug (μg/mL SEM)” value (male Sprague-Dawley rats; dose 10 mg/kg) was 5.15 ± 0.32 µg/mL and the “Drug (μg/mL SEM)” value (male Sprague-Dawley rats; dose 30 mg/kg) was 12.91 ± 1.71 µg/mL.

With `CO[C@@H](C)c1c(NC(=O)Nc2cnc(-n3nccn3)c(C(F)(F)F)c2)cnc2sc(C)nc12` [Comparative Example B, reference compound] the “CYP3A4 Fold induction” value (CYP 3A4 mRNA; mRNA fold over vehicle (0.1% DMSO)) was 2.32 and the “CYP3A4 % of positive control (%)” value (CYP 3A4 mRNA) was “(25.3) %”.

In the case of `CO[C@H](c1c(Nc2ccc([C@H](N(C)C(=O)C3CCS(=O)(=O)CC3)C(F)(F)F)cc2)cnc2sc(C)nc12)C(F)(F)F` [Example 2, N-methyl-1,1-dioxo-N-{(1S)-2,2,2-trifluoro-1-[4-({2-methyl-7-[(1R)-2,2,2-trifluoro-1-methoxyethyl][1,3]thiazolo[5,4-b]pyridin-6-yl}amino)phenyl]ethyl}-1λ^6-thiane-4-carboxamide], the pEC50 (human MALT-1 protein) was 6.72, the pEC50 (OCI-LY3 IL6) was 6.96 and the “CYP3A4 % of positive control (%)” value (CYP 3A4 mRNA) was “(2.19) %”. It also gave a fold induction at 1 day, 10 µM (CYP3A4 mRNA) of 1.13.

With `CO[C@@H](C)c1c(Nc2ccc([C@@H](C(F)F)N(C)C(=O)C3CCS(=O)(=O)CC3)cc2)cnc2sc(C)nc12` [Example 4, N-{(1S)-2,2-difluoro-1-[4-({7-[(1S)-1-methoxyethyl]-2-methyl[1,3]thiazolo[5,4-b]pyridin-6-y1}amino)phenyl]ethyl} -N-methyl-1,1-dioxo-1λ^6-thiane-4-carboxamide] the pEC50 (human MALT-1 protein) was 6.80, the pEC50 (OCI-LY3 IL6) was 5.88 and the “CYP3A4 % of positive control (%)” value (CYP 3A4 mRNA) was “(16.1) %”. For the same molecule, the fold induction at 1 day, 10 µM (CYP3A4 mRNA) was 1.98.

In the case of `CO[C@@H](c1c(Nc2ccc([C@H](N(C)C(=O)C3CCS(=O)(=O)CC3)C(F)(F)F)cc2)cnc2sc(C)nc12)C(F)F` [Example 5, N-{(1S)-1-[4-({7-[(1S)-2,2-difluoro-l-methoxyethyl]-2-methyl[1,3]thiazolo [5,4-b]pyridin-6-yl}amino)phenyl]-2,2,2-trifluoroethyl}-N-methyl-1,1-dioxo-1λ^6-thiane-4-carboxamide], the pEC50 (human MALT-1 protein) was 7.11, the pEC50 (OCI-LY3 IL6) was 6.47 and the “CYP3A4 % of positive control (%)” value (CYP 3A4 mRNA) was “(15.3) %”. For the same molecule, the fold induction at 1 day, 10 µM (CYP3A4 mRNA) was 1.77.

For `CO[C@H](c1c(Nc2ccc([C@@H](C(F)F)N(C)C(=O)C3CCS(=O)(=O)CC3)cc2)cnc2sc(C)nc12)C(F)F` [Example 6, N-{(1S)-1-[4-({7-[(1R)-2,2-difluoro-l-methoxyethyl]-2-methyl[1,3]thiazolo[5,4-b]pyridin-6-y1}amino)phenyl]-2,2-difluoroethyl}-N-methyl-1,1-dioxo-1λ^6-thiane-4-carboxamide], the pEC50 (human MALT-1 protein) was 6.84, the pEC50 (OCI-LY3 IL6) was 6.68 and the “CYP3A4 % of positive control (%)” value (CYP 3A4 mRNA) was “(5.46) %”. For the same molecule, the fold induction at 1 day, 10 µM (CYP3A4 mRNA) was 1.4.

`Cc1nc2c(C(C)C(F)F)c(Nc3ccc([C@H](N(C)C(=O)C4CCS(=O)(=O)CC4)C(F)(F)F)cc3)cnc2s1` (stereo partly drawn) [Example 16, N-R[(1S)-1-(4-{ [7-(1,1-difluoropropan-2-yl)-2-methyl[1,3]thiazolo[5,4-b]pyridin-6-yl]amino}phenyl)-2,2,2-trifluoroethyl]-N-methyl-1,1-dioxo-1λ^6-thiane-4-carboxamide] was tested, and the pEC50 (human MALT-1 protein) was 6.97 and the pEC50 (OCI-LY3 IL6) was 6.33.
